We go through two compounds from ChEMBL document CHEMBL1681705, “Optimisation of ITK inhibitors through successive iterative design cycles” (Bioorg Med Chem Lett, 2011).

The structures appear in SMILES notation.

The target of assay [1] is T1, Serine/threonine-protein kinase TBK1 (Homo sapiens) (UniProt Q9UHD2).
T1 sequence (whole entry): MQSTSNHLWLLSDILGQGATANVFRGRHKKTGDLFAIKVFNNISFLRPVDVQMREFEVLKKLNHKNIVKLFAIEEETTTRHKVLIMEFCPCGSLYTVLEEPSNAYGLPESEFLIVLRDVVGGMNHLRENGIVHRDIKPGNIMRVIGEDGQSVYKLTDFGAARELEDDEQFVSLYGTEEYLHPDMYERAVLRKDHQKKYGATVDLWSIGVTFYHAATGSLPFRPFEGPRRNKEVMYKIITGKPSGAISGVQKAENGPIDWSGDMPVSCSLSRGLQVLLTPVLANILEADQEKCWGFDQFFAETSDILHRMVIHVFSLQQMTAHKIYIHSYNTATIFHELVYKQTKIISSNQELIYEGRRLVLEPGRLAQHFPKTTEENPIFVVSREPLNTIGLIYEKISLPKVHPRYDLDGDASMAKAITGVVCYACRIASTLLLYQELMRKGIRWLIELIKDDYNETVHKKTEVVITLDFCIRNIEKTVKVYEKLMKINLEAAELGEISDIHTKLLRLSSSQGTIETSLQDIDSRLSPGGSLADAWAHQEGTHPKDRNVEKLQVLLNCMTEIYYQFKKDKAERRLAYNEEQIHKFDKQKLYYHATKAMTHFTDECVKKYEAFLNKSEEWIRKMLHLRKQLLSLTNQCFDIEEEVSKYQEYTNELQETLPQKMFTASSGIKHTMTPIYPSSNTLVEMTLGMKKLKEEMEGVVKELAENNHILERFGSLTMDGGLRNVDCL
The experiment in a line: Inhibition of TBK1 at 1 uM; values are per cent of control.

Assay [2] has as its target T2, Ephrin type-A receptor 8 (Homo sapiens) (UniProt P29322).
T2 sequence (whole entry): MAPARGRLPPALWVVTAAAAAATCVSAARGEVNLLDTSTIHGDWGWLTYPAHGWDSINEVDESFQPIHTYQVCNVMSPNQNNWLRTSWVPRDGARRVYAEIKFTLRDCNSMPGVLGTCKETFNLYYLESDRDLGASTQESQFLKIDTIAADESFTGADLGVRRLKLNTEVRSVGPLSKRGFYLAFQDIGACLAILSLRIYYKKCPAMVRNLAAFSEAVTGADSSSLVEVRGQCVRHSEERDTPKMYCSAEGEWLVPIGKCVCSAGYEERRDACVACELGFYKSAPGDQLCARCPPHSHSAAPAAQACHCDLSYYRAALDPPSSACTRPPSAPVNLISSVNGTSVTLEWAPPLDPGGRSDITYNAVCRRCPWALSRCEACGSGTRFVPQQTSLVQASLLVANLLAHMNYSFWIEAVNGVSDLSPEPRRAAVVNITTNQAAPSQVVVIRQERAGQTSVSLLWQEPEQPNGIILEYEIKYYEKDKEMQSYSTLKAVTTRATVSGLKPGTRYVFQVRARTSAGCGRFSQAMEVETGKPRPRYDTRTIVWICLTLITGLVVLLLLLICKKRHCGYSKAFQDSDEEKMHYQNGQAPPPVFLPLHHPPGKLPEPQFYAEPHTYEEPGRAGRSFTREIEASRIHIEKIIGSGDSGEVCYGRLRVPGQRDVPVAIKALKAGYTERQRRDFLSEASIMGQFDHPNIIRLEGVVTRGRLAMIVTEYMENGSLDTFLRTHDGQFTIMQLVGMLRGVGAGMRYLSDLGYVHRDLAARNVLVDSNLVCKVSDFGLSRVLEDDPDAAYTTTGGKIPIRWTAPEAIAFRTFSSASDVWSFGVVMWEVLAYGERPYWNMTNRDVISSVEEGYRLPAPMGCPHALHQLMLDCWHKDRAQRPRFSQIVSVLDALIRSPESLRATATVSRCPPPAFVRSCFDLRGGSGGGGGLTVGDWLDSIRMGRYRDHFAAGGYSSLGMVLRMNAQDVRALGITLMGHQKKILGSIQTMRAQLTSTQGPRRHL
The experiment in a line: Inhibition of EphA8 at 0.1 uM; values are per cent of control.

Assay [3] deals with T3, Ephrin type-B receptor 3 (Homo sapiens) (UniProt P54753).
T3 sequence (whole entry): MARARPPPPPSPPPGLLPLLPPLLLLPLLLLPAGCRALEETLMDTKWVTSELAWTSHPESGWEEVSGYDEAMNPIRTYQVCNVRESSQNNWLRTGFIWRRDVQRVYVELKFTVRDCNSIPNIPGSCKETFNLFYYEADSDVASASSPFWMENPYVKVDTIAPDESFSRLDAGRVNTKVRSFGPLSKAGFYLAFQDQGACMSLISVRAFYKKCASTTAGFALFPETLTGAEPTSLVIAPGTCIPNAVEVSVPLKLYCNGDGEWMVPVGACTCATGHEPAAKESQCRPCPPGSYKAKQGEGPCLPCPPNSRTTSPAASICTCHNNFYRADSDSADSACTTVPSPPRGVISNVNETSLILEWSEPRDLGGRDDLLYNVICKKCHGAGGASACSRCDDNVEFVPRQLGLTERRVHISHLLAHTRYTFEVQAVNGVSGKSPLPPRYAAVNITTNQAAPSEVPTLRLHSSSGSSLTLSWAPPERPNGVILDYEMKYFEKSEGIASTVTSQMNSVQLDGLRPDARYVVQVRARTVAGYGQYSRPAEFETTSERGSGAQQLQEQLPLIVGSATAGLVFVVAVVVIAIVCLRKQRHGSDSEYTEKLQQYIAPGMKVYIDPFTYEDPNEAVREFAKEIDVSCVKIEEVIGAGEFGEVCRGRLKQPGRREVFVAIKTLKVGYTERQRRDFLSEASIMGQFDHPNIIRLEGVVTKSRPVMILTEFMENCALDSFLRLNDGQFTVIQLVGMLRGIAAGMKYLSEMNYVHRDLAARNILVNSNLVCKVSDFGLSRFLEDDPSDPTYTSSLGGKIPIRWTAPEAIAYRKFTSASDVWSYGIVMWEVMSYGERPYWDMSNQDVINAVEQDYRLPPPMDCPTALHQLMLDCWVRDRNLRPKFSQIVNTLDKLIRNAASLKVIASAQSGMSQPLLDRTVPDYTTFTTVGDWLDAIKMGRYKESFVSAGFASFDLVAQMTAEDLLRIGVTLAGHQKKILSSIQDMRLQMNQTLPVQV
Kind of assay: Inhibition of EphB3 at 1 uM; values are per cent of control.

As usually defined, the residual activity is the signal under treatment as a percentage of the control signal. Consider `Cc1ccc2cc(-c3n[nH]c4ccc(NC5CCNC5)cc34)[nH]c2c1` (stereo unspecified), for which the residual activity in assay [1] turned out to be 2%; in assay [2], 97%; in assay [3] it was 105%.

With `Cc1ccc2cc(-c3n[nH]c4ccc(NC5CCN(Cc6ccccc6)CC5)cc34)[nH]c2c1`, the residual activity in assay [1] is 9%; in assay [2], 92%; in assay [3], 119%.
